ChEMBL document CHEMBL4177571, “Synthesis and biological evaluation of a new series of cinnamic acid amide derivatives as potent haemostatic agents containing a 2-aminothiazole substructure” (Bioorg Med Chem Lett, 2017)

How the values were obtained:
Plasma [1] = experiment: Haemostatic activity in human plasma assessed as change in rate of thrombin time at 1 uM after 3 mins by thrombin agent based assay relative to control; format: functional
Plasma [2] = experiment: Inhibition of ADP-induced platelet aggregation in human plasma; format: functional
Plasma [3] = experiment: Haemostatic activity in human plasma assessed as change in rate of activated partial thromboplastin time at 50 uM after 3 mins relative to control; format: functional
Plasma [4] = experiment: Haemostatic activity in human plasma assessed as change in rate of activated partial thromboplastin time at 5 uM after 3 mins relative to control; format: functional
Plasma [5] = experiment: Haemostatic activity in human plasma assessed as change in rate of prothrombin time at 1 uM after 3 mins by thromboplastic agent based assay relative to control; format: functional
Plasma [6] = experiment: Haemostatic activity in human plasma assessed as change in rate of thrombin time at 10 uM after 3 mins by thrombin agent based assay relative to control; format: functional
Plasma [7] = experiment: Haemostatic activity in human plasma assessed as change in rate of thrombin time at 5 uM after 3 mins by thrombin agent based assay relative to control; format: functional
Plasma [8] = experiment: Haemostatic activity in human plasma assessed as change in rate of prothrombin time at 5 uM after 3 mins by thromboplastic agent based assay relative to control; format: functional
Plasma [9] = experiment: Haemostatic activity in human plasma assessed as change in rate of thrombin time at 100 uM after 3 mins by thrombin agent based assay relative to control; format: functional
[10] = Thermal stability of the compound at 150 degC by thermogravimetric assay; format: physicochemical
Plasma [11] = experiment: Haemostatic activity in human plasma assessed as change in rate of activated partial thromboplastin time at 100 uM after 3 mins relative to control; format: functional
Plasma [12] = experiment: Haemostatic activity in human plasma assessed as change in rate of prothrombin time at 10 uM after 3 mins by thromboplastic agent based assay relative to control; format: functional
Plasma [13] = experiment: Haemostatic activity in human plasma assessed as change in rate of prothrombin time at 50 uM after 3 mins by thromboplastic agent based assay relative to control; format: functional
Plasma [14] = experiment: Haemostatic activity in human plasma assessed as change in rate of activated partial thromboplastin time at 1 uM after 3 mins relative to control; format: functional
Plasma [15] = experiment: Haemostatic activity in human plasma assessed as change in rate of thrombin time at 50 uM after 3 mins by thrombin agent based assay relative to control; format: functional
Plasma [16] = experiment: Haemostatic activity in human plasma assessed as change in rate of activated partial thromboplastin time at 10 uM after 3 mins relative to control; format: functional
Plasma [17] = experiment: Haemostatic activity in human plasma assessed as change in rate of prothrombin time at 100 uM after 3 mins by thromboplastic agent based assay relative to control; format: functional

Row | IC50 (Plasma [2]) | Stability [10] | SMILES | Activity (Plasma [1]) | Activity (Plasma [3]) | Activity (Plasma [4]) | Activity (Plasma [5]) | Activity (Plasma [6]) | Activity (Plasma [7]) | Activity (Plasma [8]) | Activity (Plasma [9]) | Activity (Plasma [11]) | Activity (Plasma [12]) | Activity (Plasma [13]) | Activity (Plasma [14]) | Activity (Plasma [15]) | Activity (Plasma [16]) | Activity (Plasma [17])
1 | 45.1 µM | Stable | O=C(CCc1ccccc1)Nc1nccs1 | -3.15% | -1.56% | -2.42% | -0.56% | -5.33% | -4.6% | -2.44% | -7.93% | 0.28% | -3.19% | -2.81% | 1% | -7.02% | -1.85% | 0%
2 | 54.5 µM | Stable | COc1ccc(/C=C/C(=O)Nc2nccs2)cc1OC | -14.62% | -0.56% | -6.47% | -1.7% | -22.41% | -16.04% | 0.28% | -14.62% | 1.97% | -0.22% | -1.49% | -0.14% | -23.82% | -1.41% | -2.99%
3 | 18.1 µM | Stable | COc1cc(/C=C/C(=O)Nc2nccs2)cc(OC)c1OC | -29.01% | 1.96% | 1.55% | 0.56% | -10.14% | -22.17% | -0.95% | -50.24% | 1.69% | 3.22% | 0.55% | 0.56% | -21.7% | 2.25% | 2.55%
4 | 73.7 µM | Stable | COc1ccc(/C=C/C(=O)Nc2nccs2)cc1 | -6.54% | 0.28% | -2.7% | -1.51% | -8.23% | -7.51% | -2.27% | -16.95% | -0.71% | 0% | -0.75% | -1.28% | -13.8% | 0.14% | -6.75%
5 | 58.1 µM | Stable | CC(=O)Oc1ccc(/C=C/C(=O)Nc2nccs2)cc1 | -11.45% | -2.71% | -3.1% | -3.2% | -22.03% | -14.54% | -4.4% | -6.39% | -2.45% | -5.29% | -4.3% | -1.68% | -21.15% | -3.88% | 1.2%
6 | 25.5 µM | Stable | COc1cc(/C=C/C(=O)Nc2nccs2)ccc1OC(C)=O | -5.76% | -6.28% | -2.57% | -1.98% | -13.06% | -7.88% | -2.24% | -11.06% | -1.85% | -4.39% | -5.77% | -1.14% | -12.35% | -3.42% | -7.32%
7 | 36.6 µM | Stable | O=C(/C=C/c1ccccc1)Nc1nccs1 | -7.93% | -6.72% | -5.81% | -5.69% | -11.23% | -10.79% | -7.09% | -9.69% | -2.71% | -5.59% | -4.4% | -4.78% | -13.66% | -9.95% | -3.7%
8 | 1.87 µM | Stable | CC(=O)Oc1ccccc1/C=C/C(=O)Nc1nccs1 | -2.4% | -8.15% | -9.51% | -1.68% | -21.39% | -13.46% | -3.25% | -21.88% | -6.12% | -4.62% | -2.2% | -5.55% | -26.2% | -8.61% | -1.78%
9 | 35.5 µM | Stable | CC(=O)Oc1cccc(/C=C/C(=O)Nc2nccs2)c1 | -5.05% | -9.06% | -6.57% | -0.1% | -15.39% | -7.21% | -1.05% | -21.64% | -8.61% | -0.73% | -0.42% | -4.64% | -19.95% | -10.19% | -0.84%
10 | 75.6 µM | Stable | CC(=O)Oc1ccc(/C=C/C(=O)Nc2nccs2)cc1OC(C)=O | -13.94% | -2.04% | -6% | -4.3% | -28.13% | -30.77% | -4.09% | -15.63% | 0% | -1.36% | -1.68% | -2.94% | -27.89% | -2.94% | -3.88%
11 | 202 µM | – | Nc1nccs1 [AMINOTHIAZOLE] | -3.53% | 0% | -2% | -6.63% | -6.47% | -5.06% | -4.91% | -3.53% | 2.53% | -2.84% | -5.17% | -3.71% | -5.41% | -0.43% | -5.43%
12 | 46.2 µM | – | O=S(=O)(O)c1cc(O)ccc1O [ETHAMSYLATE] | – | – | – | – | – | – | – | – | – | – | – | – | – | – | –
